Laboratory results: patent US5670520A, “Method for inhibiting virus replication in mammalian cells using carbostyil derivatives” (Otsuka Pharmaceutical Co., Ltd., priority 1996, dated 1997)

How the values were obtained:
[1] = system: nucleoside and nucleobase transport in human T cells; assay: [3H]nucleoside / [3H]nucleobase transport, 1 min pulse, T cells; type: cell-based; settings: 250 μM vesnarinone, 100 μM deferoxamine, 15 nM aphidicolin or 1.0 μM dipyridamole
[2] = system: CHO cells; assay: Rescue of CHO cells from cytostatic effects of 5-FUd; type: cell-based, Chinese hamster; settings: 50 nM 5-FUd, 120 hrs; 0-250 μM vesnarinone or 1.0-10 μM dipyridamole
From the text: Nucleoside transport inhibitors, such as dipyridamole or NBMPR, are known to rescue cell proliferation from the cytotoxic effects of 5-fluorouridine(5-FUd) or high dose thymidine, by inhibiting transport of this cytotoxic nucleoside analog or thymidine (Aronow et al, Mol. Cell Biol., 6:2957-2962 (1986)).

[3] = system: ZEBRA; assay: Flow cytometric detection of ZEBRA in Akata cells; type: cell-based, Epstein-Barr virus; settings: 3 hrs after anti-IgG; vesnarinone 0-100 μg/ml
Method: The human Burkitt's lymphoma cell line, Akata, provided by Dr. Kenzo Takada (Takada, Int. J. Cancer, 33:27-32 (1984); and Takada et al, Virus Genes, 5:147-156 (1991)), was cultured at 37° C. in RPMI 1640 medium supplemented with 15% (v/v) heat-inactivated FCS, and 20 μg/ml gentamicin.
The cell progression of Akata cells was arrested by culturing of the cells for 96 hrs in the presence of 1.5% (y/v) DMSO (Sigma, St. Louis, Mo.) (Sawai et al, Exp. Cell Res., 187:4-10 (1990); and Takase et al, Cell Growth Differ., 3:515-521 (1992)).
1 hr after transfer (release from DMSO), a goat F(ab')2 fragment of anti-human IgG antibody (Organon Teknika, Durham, N.C.) was added at a concentration of 50 μg/ml to induce productive EBV replication (Takagi et al, Virology, 185:309-315 (1991)). […]
For flow cytometric detection of ZEBRA, after a 60 min fixation with 70% (v/v) ethanol at 4° C., 10^6 cells were centrifuged, and washed with PBS. […] The cells were washed with PBS again, and analyzed by flow cytometry (Epics Profile, Coulter), monitoring fluorescence (520-540 nm) in a logarithmic scale with 488 nm excitation. The positivity for ZEBRA was calculated by a non-linear least squares method (Takase et al, J. Immunol. Methods, 118:129-138 (1989)).

[4] = system: EBNA2, LMP1, bcl-2; assay: Western blot of EBNA2, LMP1 and bcl-2 in Burkitt's lymphoma cell lines; type: cell-based, human; settings: 20 μg/ml vesnarinone 7 days
From the text: The cell lines included Akata (type A, group I), Raji (type A, group III), P3HR1 (type B, group I) (ATCC No. HTB-62), and Jijoye (type B, group III) (ATCC No. CCL-87). The molecules examined were a latent nuclear protein, EBNA2, a latent membrane protein, LMP1, and an anti-apoptotic host component, bcl-2. […] These differences between the two phenotypes have been related to the sensitivity to induce apoptosis, and the ability to induce the productive phase of EBV infection (Henderson et al, Cell, 65:1107-1115 (1991); and Gregory et al, Nature, 349:612-614 (1991)).
For detection of EBNA2, LMP1, and bcl-2, the mouse monoclonal anti-EBNA2 (PE2, Accurate, Westbury, N.Y.) (Young et al, N. Engl. J. Med., 321:1080-1085 (1989)), the mouse monoclonal anti-LMP1 (S12, provided by Dr. David A. Thorley-Lawson) (Mann et al, J. Virol., 55:710-720 (1985)), and the monoclonal anti-bcl-2 (bcl-2/124, Accurate) (Pezzella et al, Am. J. Pathol., 137:225-232 (1990)), respectively, were used. The ECL chemiluminescence method was used for the detection of these proteins.

[5] = system: thymidine kinase; assay: Thymidine kinase assay, vesnarinone added in vitro; type: biochemical; settings: vesnarinone up to 100 μg/ml
Method: 5.0 μl of the kinase extract was incubated at 37° C. with 35 µl of kinase reaction buffer comprising 150 mM phosphate (pH 7.5), 20 mM ATP, 20 mM MgCl2, 40 mM KCl, 1.0 mM DTT, 10 mM NaF and 20 μM [^3 H]thymidine (6.7 Ci/mmole, ICN) for 5 or 15 min. The reaction was terminated by placing on ice, and an addition of 4.0 μl of 0.5M EDTA (pH 8.0). For measurement of dTTP-resistant thymidine kinase activity, a kinase reaction buffer additionally containing 100 μM dTTP (Pharmacia) was used.
The amount of phosphorylated [^3 H]thymidine derivatives formed during the reaction was determined by applying the reaction mixtures onto Whatman DE-81 paper filters, which were then washed four times in 1.0 mM ammoniumformate (pH 8.0), and once in ethanol before drying and liquid scintillation counting.

[6] = system: PHA-activated human T lymphocytes; assay: Accumulation of phosphorylated [3H]thymidine / [3H]AZT in PHA-activated human T lymphocytes; type: cell-based; settings: 0, 75 or 250 μM vesnarinone; 0-120 min
From the text: Similar results were obtained when using U937 cells, in place of the PHA-activated human T lymphocytes.

[7] = 31 μg/ml vesnarinone in overlay medium
[8] = some patients; cited from earlier work
[9] = cited from earlier work
[10] = system: primary human T lymphocytes; assay: Rapid uptake of [3H]thymidine / [3H]AZT in PHA-activated human T cells; settings: 0-250 μM vesnarinone, 1 min
Method: Human PBMC were obtained by leukopheresis of HIV-1 and HBV Zeronegative healthy donors. Mononuclear cell suspensions were prepared therefrom by Ficoll-Hypaque gradient centrifugation, and the T cells were obtained therefrom by E-rosette enrichment as described by Terada et al, J. Immunol., 147:698-704 (1991).
Then, 1.0 μCi/ml of [^3 H]thymidine (6.7 Ci/mmol) or 1.0 μCi/ml of [^3 H]AZT (14 Ci/mmol) was added, and the mixture was immediately layered on silicone oil/paraffin oil (96:6) in microfuge tubes. […] The water and oil phases were discarded, and radioactivity of the cell pellets was measured using liquid scintillation counting.

COc1ccc(C(=O)N2CCN(c3ccc4c(c3)CCC(=O)N4)CC2)cc1OC [vesnarinone, 3,4-dihydro-6-[4-(3,4-dimethoxybenzoyl)-1-piperazinyl]-2(1H)-quinoline]
transport of [3H]thymidine, [3H]adenosine, [3H]adenine, [3H]uracil [1]: inhibited transportation of [^3 H]thymidine, [^3 H]adenosine, [^3 H]adenine, and also to a lesser extent, [^3 H]uracil
reversal of cytostatic effects of 5-FUd (cell number) [2]: demonstrated a similar ability to rescue the cells in a dose-dependent manner
degree of positivity for ZEBRA [3]: not decreased by vesnarinone at concentrations less than or equal to 10 μg/ml
expression of EBNA2, LMP1, bcl-2 ([4]; group I lines (Akata, P3HR1)): did not induce these molecules in the group I lines
expression of EBNA2, LMP1, bcl-2 ([4]; group III lines (Raji, Jijoye)): nor did the vesnarinone alter levels of expression of these molecules in the group III lines
thymidine kinase activity, drug added to in vitro assay [5]: did not display any inhibition of the thymidine kinase activity
accumulation of phosphorylated AZT [6]: augmented the accumulation of phosphorylated AZT
accumulation of phosphorylated [3H]thymidine [6]: delayed the accumulation of phosphorylated [^3 H]thymidine
precipitate observed in culture [7]: A small amount of precipitate was observed at 31 μg/ml of vesnarinone
major side effect in patients [8]: agranulocytosis, a major side effect of vesnarinone observed in some patients
therapeutic range in vivo [9]: 2 to 80 µM
uptake of [3H]AZT [10]: the uptake of [^3 H]AZT was not affected by vesnarinone
uptake of [3H]thymidine [10]: inhibits the uptake of [^3 H]thymidine in a dose-dependent manner
